Data reported in ChEMBL document CHEMBL3526086, “Identification of the oxidative and conjugative enzymes involved in the biotransformation of brivanib” (Drug Metab Dispos, 2012).

Tests used:
[1] = test system: Liver cytosol; assay: Drug level in human liver cytosol treated with 2 uM [14C]brivanib alaninate for 2 hrs by LC/MS analysis in presence of PAPS; type: ADME, tissue-based
[2] = biological target: Sulfotransferase 1A1 (Homo sapiens, UniProt P50225); assay: Activity of human SULT1A1 assessed as compound formation treated with 2 and 20 uM brivanib for 30 mins by LC/MS analysis in presence of PAPS; type: ADME; settings: 0.5 h
[3] = biological target: Sulfotransferase 1A3 (Homo sapiens, UniProt P0DMM9); assay: Activity of human SULT1A3 assessed as compound formation treated with 2 and 20 uM brivanib for 30 mins by LC/MS analysis in presence of PAPS; type: ADME; settings: 0.5 h
[4] = biological target: Sulfotransferase 2A1 (Homo sapiens, UniProt Q06520); assay: Activity of human SULT2A1 assessed as compound formation treated with 2 and 20 uM brivanib for 30 mins by LC/MS analysis in presence of PAPS; type: ADME; settings: 0.5 h
[5] = biological target: Sulfotransferase 1B1 (Homo sapiens, UniProt O43704); assay: Activity of human SULT1B1 assessed as compound formation treated with 2 and 20 uM brivanib for 30 mins by LC/MS analysis in presence of PAPS; type: ADME; settings: 0.5 h
[6] = biological target: Sulfotransferase 1E1 (Homo sapiens, UniProt P49888); assay: Activity of human SULT1E1 assessed as compound formation treated with 2 and 20 uM brivanib for 30 mins by LC/MS analysis in presence of PAPS; type: ADME; settings: 0.5 h
[7] = test system: Liver microsome; assay: Drug metabolism in human liver microsomes assessed as (R)-4-fluoro-5-(6-(2-hydroxypropoxy)-5-methylpyrrolo[1,2-f][1,2,4]triazin-4-yloxy)-1H-indole-2-carboxylic acid formation at 2 uM for 60 mins by LC/MS analysis; type: ADME
[8] = test system: Liver microsome; assay: Drug metabolism in human liver microsomes assessed as (R)-4-fluoro-5-(6-(2-hydroxypropoxy)-5-methylpyrrolo[1,2-f][1,2,4]triazin-4-yloxy)-1H-indole-2-carboxylic acid formation at 2 uM for 60 mins by LC/MS analysis in presence of NADPH; type: ADME
[9] = test system: Liver cytosol; assay: Drug metabolism in human liver cytosol assessed as (R)-4-fluoro-5-(6-(2-hydroxypropoxy)-5-methylpyrrolo[1,2-f][1,2,4]triazin-4-yloxy)-1H-indole-2-carboxylic acid formation at 2 uM for 60 mins by LC/MS analysis in presence of NADPH; type: ADME
[10] = test system: Liver cytosol; assay: Drug metabolism in human liver cytosol assessed as (R)-4-fluoro-5-(6-(2-hydroxypropoxy)-5-methylpyrrolo[1,2-f][1,2,4]triazin-4-yloxy)-1H-indole-2-carboxylic acid formation at 2 uM for 60 mins by LC/MS analysis; type: ADME, tissue-based
[11] = test system: Liver cytosol; assay: Drug metabolism in human liver cytosol assessed as (R)-1-(4-(4-fluoro-2-(hydroxymethyl)-1H-indol-5-yloxy)-5-methylpyrrolo[1,2-f][1,2,4]triazin-6-yloxy)propane-2-sulfonic acid formation at 2 uM for 60 mins by LC/MS analysis in presence of PAPS; type: ADME
[12] = test system: Liver cytosol; assay: Drug metabolism in human liver cytosol assessed as (R)-4-fluoro-5-(5-methyl-6-(2-sulfopropoxy)pyrrolo[1,2-f][1,2,4]triazin-4-yloxy)-1H-indole-2-carboxylic acid formation at 2 uM for 60 mins by LC/MS analysis in presence of PAPS; type: ADME
[13] = test system: Liver cytosol; assay: Drug metabolism in human liver cytosol assessed as sulfate conjugate formation at 2 uM for 60 mins in absence of PAPS by LC/MS analysis; type: ADME, tissue-based; settings: 1 h
[14] = test system: Liver microsome; assay: Drug metabolism in human liver microsomes assessed as 1-(4-(4-fluoro-2-methyl-1H-indol-5-yloxy)-5-methylpyrrolo[1,2-f][1,2,4]triazin-6-yloxy)propan-2-one formation at 2 uM for 60 mins by LC/MS analysis; type: ADME
[15] = test system: Liver microsome; assay: Drug metabolism in human liver microsomes assessed as (R)-1-(4-(4-fluoro-2-(hydroxymethyl)-1H-indol-5-yloxy)-5-methylpyrrolo[1,2-f][1,2,4]triazin-6-yloxy)propan-2-ol formation at 2 uM for 60 mins by LC/MS analysis in presence of NADPH; type: ADME
[16] = test system: Liver microsome; assay: Drug metabolism in human liver microsomes assessed as 1-(4-(4-fluoro-2-methyl-1H-indol-5-yloxy)-5-methylpyrrolo[1,2-f][1,2,4]triazin-6-yloxy)propan-2-one formation at 2 uM for 60 mins by LC/MS analysis in presence of NADPH; type: ADME
[17] = test system: Liver microsome; assay: Drug metabolism in human liver microsomes assessed as brivanib formation at 2 uM for 60 mins by LC/MS analysis; type: ADME; settings: 1 h
[18] = test system: Liver microsome; assay: Drug metabolism in human liver microsomes assessed as brivanib formation at 2 uM for 60 mins by LC/MS analysis in presence of NADPH; type: ADME; settings: 1 h
[19] = test system: Liver microsome; assay: Drug metabolism in human liver microsomes assessed as (R)-1-(4-(4-fluoro-2-(hydroxymethyl)-1H-indol-5-yloxy)-5-methylpyrrolo[1,2-f][1,2,4]triazin-6-yloxy)propan-2-ol formation at 2 uM for 60 mins by LC/MS analysis; type: ADME
[20] = test system: Liver cytosol; assay: Drug metabolism in human liver cytosol assessed as (R)-1-(4-(4-fluoro-2-methyl-1H-indol-5-yloxy)-5-methylpyrrolo[1,2-f][1,2,4]triazin-6-yloxy)propane-2-sulfonic acid formation at 2 uM for 2 hrs by LC/MS analysis in presence of PAPS; type: ADME

Chain of Sulfotransferase 1B1 (O43704 whole entry): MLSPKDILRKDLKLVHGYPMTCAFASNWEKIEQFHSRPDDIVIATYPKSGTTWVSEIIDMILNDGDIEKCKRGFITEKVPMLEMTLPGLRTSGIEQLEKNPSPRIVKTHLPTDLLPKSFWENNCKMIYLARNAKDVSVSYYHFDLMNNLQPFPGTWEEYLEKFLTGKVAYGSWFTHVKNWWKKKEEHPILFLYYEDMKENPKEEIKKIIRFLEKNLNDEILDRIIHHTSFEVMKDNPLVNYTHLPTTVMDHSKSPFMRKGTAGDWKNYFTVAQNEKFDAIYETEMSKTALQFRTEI
Chain of Sulfotransferase 1E1 (P49888 whole entry): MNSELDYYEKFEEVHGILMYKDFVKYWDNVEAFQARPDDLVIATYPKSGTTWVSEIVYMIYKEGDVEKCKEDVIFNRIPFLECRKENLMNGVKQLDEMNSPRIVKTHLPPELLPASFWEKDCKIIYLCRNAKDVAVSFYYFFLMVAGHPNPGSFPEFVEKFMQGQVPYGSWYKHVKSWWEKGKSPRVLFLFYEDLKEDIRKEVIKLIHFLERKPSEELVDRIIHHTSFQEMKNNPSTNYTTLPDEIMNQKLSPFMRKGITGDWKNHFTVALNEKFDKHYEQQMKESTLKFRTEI
Chain of Sulfotransferase 1A1 (P50225 whole entry): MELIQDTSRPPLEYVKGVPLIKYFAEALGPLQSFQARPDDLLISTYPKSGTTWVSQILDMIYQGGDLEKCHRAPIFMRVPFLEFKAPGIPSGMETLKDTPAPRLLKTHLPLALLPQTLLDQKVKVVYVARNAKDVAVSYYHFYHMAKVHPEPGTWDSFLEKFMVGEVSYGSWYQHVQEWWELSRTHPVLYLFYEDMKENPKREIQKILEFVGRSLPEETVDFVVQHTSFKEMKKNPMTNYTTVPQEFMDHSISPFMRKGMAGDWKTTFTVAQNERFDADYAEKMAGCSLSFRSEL
Chain of Sulfotransferase 2A1 (Q06520 whole entry): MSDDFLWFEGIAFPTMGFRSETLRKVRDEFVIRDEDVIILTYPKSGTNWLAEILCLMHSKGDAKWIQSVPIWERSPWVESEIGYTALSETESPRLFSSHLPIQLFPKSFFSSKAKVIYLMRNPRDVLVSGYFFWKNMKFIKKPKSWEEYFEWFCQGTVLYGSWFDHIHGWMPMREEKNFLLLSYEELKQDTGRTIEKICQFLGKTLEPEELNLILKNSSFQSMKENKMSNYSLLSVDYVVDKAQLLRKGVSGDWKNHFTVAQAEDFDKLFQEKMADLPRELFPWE
Chain of Sulfotransferase 1A3 (P0DMM9 whole entry): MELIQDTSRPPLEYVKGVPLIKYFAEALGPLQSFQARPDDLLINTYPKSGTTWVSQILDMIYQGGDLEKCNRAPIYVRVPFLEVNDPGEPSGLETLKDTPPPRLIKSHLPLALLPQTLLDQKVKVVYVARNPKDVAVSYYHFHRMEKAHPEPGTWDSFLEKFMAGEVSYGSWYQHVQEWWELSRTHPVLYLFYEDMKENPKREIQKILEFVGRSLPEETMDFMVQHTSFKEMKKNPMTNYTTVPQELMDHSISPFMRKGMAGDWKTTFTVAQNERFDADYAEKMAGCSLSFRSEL

Compound | Drug metabolism [1] | Drug metabolism [2] | Drug metabolism [3] | Drug metabolism [4] | Drug metabolism [5] | Drug metabolism [6] | Drug metabolism [7] | Drug metabolism [8] | Drug metabolism [9] | Drug metabolism [10] | Drug metabolism [11] | Drug metabolism [12] | Drug metabolism [13] | Drug metabolism [14] | Drug metabolism [15] | Drug metabolism [16] | Drug metabolism [17] | Drug metabolism [18] | Drug metabolism [19] | Drug metabolism [20]
Cc1cc2c(F)c(Oc3ncnn4cc(OC[C@@H](C)OS(=O)(=O)O)c(C)c34)ccc2[nH]1 | metabolite_detected | metabolite_detected | metabolite_detected | metabolite_detected | metabolite_detected | metabolite_detected | – | – | – | – | – | – | – | – | – | – | – | – | – | –
Cc1c(OC[C@@H](C)O)cn2n[14cH]nc(Oc3ccc4[nH]c(CO)cc4c3F)c12 | – | – | – | – | – | – | metabolite_not_detected | metabolite_detected | metabolite_detected | metabolite_detected | metabolite_detected | metabolite_detected | metabolite_not_detected | – | – | – | – | – | – | –
Cc1cc2c(F)c(Oc3n[14cH]nn4cc(OC[C@@H](C)OC(=O)[C@H](C)N)c(C)c34)ccc2[nH]1 | – | – | – | – | – | – | metabolite_not_detected | metabolite_detected | – | – | – | – | – | metabolite_not_detected | metabolite_detected | metabolite_detected | metabolite_detected | metabolite_detected | metabolite_not_detected | metabolite_detected
